Test results from PubChem BioAssay (NCI).
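Grown in 96-well plates, cells were treated for 48 hours with each compound at five concentrations. Insufficient inhibition: endpoint recorded as highest concentration tested. GI50 marks 50% less growth. At the TGI there is no net growth.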

What was measured:
Assay in all cases: inhibition of tumour cell growth, NCI panel, 48 h
MALME-3M melanoma = system: MALME-3M melanoma
MDA-MB-435 = system: MDA-MB-435
COLO 205 colon = system: COLO 205 colon
SK-OV-3 ovarian = system: SK-OV-3 ovarian
A498 renal = system: A498 renal
NCI-H522 lung = system: NCI-H522 lung
OVCAR-3 ovarian = system: OVCAR-3 ovarian
NCI/ADR-RES ovarian = system: NCI/ADR-RES ovarian
K-562 leukemia = system: K-562 leukemia
MCF7 breast = system: MCF7 breast

## NC1=CC(=O)c2cccnc2C1=O
MALME-3M melanoma
  GI50: 1.7 µM
  TGI: 3.11 µM
MDA-MB-435
  GI50: 0.833 µM
  TGI: 2.12 µM
COLO 205 colon
  GI50: 3.33 µM
  TGI: 11.7 µM
SK-OV-3 ovarian
  GI50: 4.26 µM
  TGI: 17.8 µM
A498 renal
  GI50: 10.1 µM
  TGI: 23.3 µM
NCI-H522 lung
  GI50: 0.533 µM
  TGI: 2.17 µM
OVCAR-3 ovarian
  GI50: 1.44 µM
  TGI: 3.16 µM
NCI/ADR-RES ovarian
  GI50: 2.29 µM
  TGI: 11.2 µM

## O=C1c2[nH]cc(CNC3CN4CCC3CC4)c2C(=O)c2c1c(O)c1ccccc1c2O (stereo not given)
MALME-3M melanoma
  GI50: 2.78 µM
  TGI: 7.14 µM
MDA-MB-435
  GI50: 1.4 µM
  TGI: 2.76 µM
COLO 205 colon
  GI50: 2.05 µM
  TGI: 9.56 µM
SK-OV-3 ovarian
  GI50: 3.71 µM
  TGI: 20.1 µM
K-562 leukemia
  GI50: 0.238 µM
  TGI: 12.1 µM
A498 renal
  TGI: 1.72 µM
OVCAR-3 ovarian
  GI50: 1.01 µM
  TGI: 2.22 µM
NCI/ADR-RES ovarian
  GI50: 2.08 µM
  TGI: 6.4 µM

## OC(c1cc(-c2cccc(Cl)c2)nc2ccccc12)C1CCCCN1 (stereo not given)
MALME-3M melanoma
  GI50: 2.05 µM
  TGI: 3.77 µM
MDA-MB-435
  GI50: 1.63 µM
  TGI: 3.15 µM
COLO 205 colon
  GI50: 1.98 µM
  TGI: 3.7 µM
SK-OV-3 ovarian
  GI50: 3.54 µM
  TGI: 12.2 µM
K-562 leukemia
  GI50: 1.39 µM
  TGI: 4.46 µM
NCI-H522 lung
  GI50: 1.97 µM
  TGI: 3.66 µM
OVCAR-3 ovarian
  GI50: 1.81 µM
  TGI: 3.21 µM
NCI/ADR-RES ovarian
  GI50: 1.99 µM
  TGI: 4.02 µM

## Cc1ccc(S(=O)(=O)c2ccc(NC(=O)SCCC(=O)O)cc2)cc1
COLO 205 colon
  TGI: > 100 µM
K-562 leukemia
  TGI: > 100 µM
A498 renal
  TGI: > 100 µM
NCI-H522 lung
  TGI: > 100 µM
OVCAR-3 ovarian
  TGI: > 100 µM

## CC(=O)Nc1ccccc1-c1nc2ccccc2nc1C
MALME-3M melanoma
  TGI: > 100 µM
COLO 205 colon
  TGI: > 100 µM
SK-OV-3 ovarian
  TGI: > 100 µM
K-562 leukemia
  TGI: > 100 µM
A498 renal
  TGI: > 100 µM
NCI-H522 lung
  TGI: > 100 µM
OVCAR-3 ovarian
  TGI: > 100 µM

## COC(=O)[C@@H](C)C[C@H](Cc1cn(C)c2ccccc12)NC(=O)c1csc([C@@H](C[C@H](C(C)C)N(C)C(=O)[C@@H](NC(=O)[C@H]2CCCCN2C)C(C)C)OC(C)=O)n1
MDA-MB-435
  GI50: 0.00215 µM
  TGI: 0.00856 µM
COLO 205 colon
  GI50: 0.00788 µM
  TGI: 0.0859 µM
SK-OV-3 ovarian
  GI50: 0.0602 µM
  TGI: > 16.7 µM
K-562 leukemia
  GI50: 0.00547 µM
  TGI: > 16.7 µM
A498 renal
  GI50: 0.0456 µM
  TGI: 1.12 µM
NCI-H522 lung
  GI50: 0.00303 µM
  TGI: 0.0108 µM
OVCAR-3 ovarian
  GI50: 0.0051 µM
NCI/ADR-RES ovarian
  GI50: 0.417 µM
  TGI: > 16.7 µM
MCF7 breast
  GI50: 0.00524 µM
  TGI: > 16.7 µM

## CC1=C(O)c2cn(C)cc2C(=O)C1=O
MALME-3M melanoma
  TGI: > 100 µM
COLO 205 colon
  TGI: > 100 µM
SK-OV-3 ovarian
  TGI: > 100 µM
K-562 leukemia
  TGI: > 100 µM
A498 renal
  TGI: > 100 µM
OVCAR-3 ovarian
  TGI: > 100 µM

## CC[C@H](NC(=O)[C@H]1CCCCN1C)C(=O)N(C)[C@H](C[C@@H](OC(C)=O)c1nc(C(=O)N[C@@H](Cc2ccccc2)C[C@H](C)C(=O)O)cs1)C(C)C
MALME-3M melanoma
  GI50: 0.00538 µM
  TGI: > 14.3 µM
MDA-MB-435
  GI50: < 0.00143 µM
  TGI: 0.00391 µM
COLO 205 colon
  GI50: 0.00396 µM
  TGI: 0.0499 µM
SK-OV-3 ovarian
  GI50: 0.00383 µM
  TGI: > 14.3 µM
K-562 leukemia
  GI50: 0.00209 µM
  TGI: > 14.3 µM
NCI-H522 lung
  GI50: 0.00284 µM
  TGI: 0.337 µM
OVCAR-3 ovarian
  GI50: < 0.00143 µM
  TGI: 0.0286 µM
NCI/ADR-RES ovarian
  GI50: 0.0785 µM
  TGI: > 14.3 µM
MCF7 breast
  GI50: < 0.00143 µM
  TGI: > 14.3 µM
